The values that follow come from patent US20220251081A1, “HETEROBICYCLIC INHIBITORS OF MAT2A AND METHODS OF USE FOR TREATING CANCER” (priority 2019, published 2022).

One assay relates to HCT116 MTAP-/-. Put plainly: Inhibition of cellular proliferation, 4 days, Cell Titer Glo, HCT116 MTAP-/-. To be noted: Homo sapiens, HCT-116, 96 h, IC50 score, read-out: 4 Day Relative Growth Inhibition (MTAP −/−). Format: cell-based. The method, then:
(§1) Assay for Inhibition of Cellular Proliferation
(§2) Test compound impact on cancer cell growth was assessed by treating cancer cells with compound for 4 days and then measuring proliferation using an ATP-based cell proliferation readout (Cell Titer Glo, Promega Corporation).
(§3) In a typical assay an isogenic pair of HCT116 human colon carcinoma cell lines which vary only in MTAP deletion status (HCT116 MTAP +/+ and HCT116 MTAP−/−) were plated in 96-well dishes at appropriate cell density. Following 24 hours, cells were then treated with the candidate MAT2A inhibitor. Prior to addition to cells, the compound was first serially diluted in 100% DMSO, typically as a 3-fold serial dilution starting at 500× top dose with 10 dose points including DMSO only control. Compound was then transferred to a working stock plate in cell culture media by adding 5 μL of compound in DMSO to 495 μL of cell culture media. This working stock was then added to cells via a further 5-fold dilution, by adding 25 μL of working stock to 100 μL of cells in culture media. Following compound addition, cells were incubated at 37° C./5% C02 for 4 days.
(§4) To measure inhibition of cellular proliferation, cells were allowed to equilibrate to room temperature for 30 minutes, and were then treated with 125 μL of Cell Titer Glo reagent. The plate was then covered with aluminum foil and shaken for 15 minutes to ensure complete mixing and full cell lysis. Luminescent signal was then measured using a plate-based luminometer Veritas version 1.9.2 using ATP standard curve to confirm assay reproducibility from run to run. This luminescence measure was converted to a proliferation index by subtracting from each data point the ATP luminescence signal measured from a bank (no cells) well and dividing by the ATP luminescence signal measured in 0.2% DMSO control well adjusted for signal in blank well. Compound activity was then represented as a percentage change in proliferation relative to a within-plate DMSO control against log 10 of compound concentration in molar (M) units.
In general terms: Cellular ATP, detected with luciferase, serves as a proxy for viable cell number.

The test system of assay [1] is SAM in HCT116 human colon carcinoma cell line with deleted MTAP gene. Put plainly: Cellular assay of target engagement (SAM): SAM level by LC-MS/MS after 72 hrs. Format: cell-based. To be noted: HCT-116, IC50 score, read-out: Cell 72 h SAM Inhibition (MTAP −/−). The method, then: Cellular Assay of Target Engagement (SAM)
Measurement of MAT2A activity in cells was made by direct quantitation of the abundance of the product of its enzymatic activity, SAM. Cancer cells were treated with candidate MAT2A inhibitors for a suitable incubation period, and the cells were then lysed using a reagent which quenched any further enzyme activity. Soluble metabolites including SAM were collected and SAM itself was directly measured from the lysate using quantitative LC-MS/MS.
A typical assay was performed using an HCT116 human colon carcinoma cell line which was genetically engineered to delete the MTAP gene (commercially available from Horizon Discovery). This cell line was utilized because it was determined that loss of the MTAP gene predicts sensitivity to MAT2A inhibitors. Cells were plated in 96-well dishes at appropriate cell density. Following 24 hours, cells were then treated with the candidate MAT2A inhibitor. Prior to addition to cells, the compound was first serially diluted in 100% DMSO, typically as a 3-fold serial dilution starting at 500× top dose with 10 dose points including DMSO only control. Compound was then transferred to a working stock plate in cell culture media by adding 5 μL of compound in DMSO to 495 μL of cell culture media. This working stock was then added to cells via a further 5-fold dilution, by adding 25 μL of working stock to 100 μL of cells in culture media. Following compound addition, cells were incubated at 37° C./5% CO2 for 72 hrs.
To quantitate SAM levels following compound treatment, cells were gently washed once in ammonium carbonate buffer (75 mM at pH 7.4), placed on dry ice, and lysed with metabolite extraction buffer (80% cold methanol and 20% water (v/v) with acetic acid at 1M final concentration with 200 ng/mL deuterated d3-SAM as internal control). Following centrifugation at 4° C. at 3,200 rpm for 30 minutes, the supernatant was collected and stored at −80° C. until analysis by Liquid Chromatography with tandem Mass Spectrometry (LC-MS/MS). LC-MS/MS analysis was performed using an API6500 Mass Spectrometer (Sciex, Framingham, Mass., USA) operating in positive ion spray mode and equipped with a Waters UPLC Acquity (Waters, Milford, Mass., USA) BEH Amide column. Multiple Reaction Monitoring data was acquired for SAM and the d3-SAM standard, using a mass transition pair at m/z 399.2→250.1 and 402.2→250.1, respectively. In a typical LC-MS/MS analysis, the initial flow rate was 0.5 ml/min of 25% mobile phase A (acetonitrile and water at 5:95 (v/v) with 1% formic acid and 10 mM ammonium acetate) and 75% mobile phase B (acetonitrile and water at 95:5 (v/v) with 1% formic acid and 10 mM ammonium acetate), 0.2-0.5 minutes with 75%-35% mobile phase B, 25%-65% mobile phase A, at 0.5 min 65% mobile phase A and 35% mobile phase B, 1.0-1.1 minutes with 35%-75% mobile phase B, 65%-25% mobile phase A, at 1.1 min 25% mobile phase A and 75% mobile phase B with a total run time of 1.5 minutes.

A further assay deals with HCT116 MTAP +/+. The experiment in a line: Inhibition of cellular proliferation, 4 days, Cell Titer Glo, HCT116 MTAP+/+. The format is cell-based. To be noted: Homo sapiens, HCT-116, 96 h, IC50 score, read-out: 4 Day Relative Growth Inhibition (MTAP +/+). The method, then: as §1, §2, §3, §4
The next assay deals with T1, MAT2A homodimer (Homo sapiens, UniProt P31153).
T1 construct: inferred from Ni sepharose purification and imidazole elution; made in house; host or cells: Sf9 insect cells, recombinant baculovirus (Bac to Bac, pFASTBAC1 vector)
T1 sequence (P31153 whole entry): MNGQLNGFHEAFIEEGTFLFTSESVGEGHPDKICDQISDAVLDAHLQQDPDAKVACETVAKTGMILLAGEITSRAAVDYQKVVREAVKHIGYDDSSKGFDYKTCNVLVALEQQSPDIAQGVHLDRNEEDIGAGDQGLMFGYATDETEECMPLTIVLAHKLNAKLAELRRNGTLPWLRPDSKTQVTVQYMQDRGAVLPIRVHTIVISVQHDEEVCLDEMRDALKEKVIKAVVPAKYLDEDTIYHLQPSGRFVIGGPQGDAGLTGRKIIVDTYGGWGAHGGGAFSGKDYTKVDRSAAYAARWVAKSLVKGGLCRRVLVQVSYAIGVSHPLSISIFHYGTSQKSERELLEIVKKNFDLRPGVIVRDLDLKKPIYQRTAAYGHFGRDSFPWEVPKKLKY
Put plainly: Biochemical assay: inhibition of recombinant MAT2A homodimer (phosphate release, PiColorLock Gold). To be noted: MAT2A IC50 score; read-out: Enzyme Inhibition. The method, then: Mat2A protein was expressed by recombinant baculovirus in SF9 infected cells using the Bac to Bac system cloned into the pFASTBAC1 vector (Invitrogen, Carlsbad, Calif.). Recombinant MAT2A was isolated from the cell lysate of 150 g of infected cells using HP Ni sepharose column chromatography. Recombinant MAT2A homodimer was eluted with 250 and 500 mM imidazole, and fractions containing MAT2A were identified by sodium dodecyl sulfate polyacrylamide gel electrophoresis and pooled.
For determination of the inhibitory potency of compounds against the MAT2A homodimer, protein was diluted to 4 μg/mL in assay buffer (50 mM Tris, pH 8.0, 50 mM KCl, 15 mM MgCl2, 0.3 mM EDTA, 0.005% [w/v] bovine serum albumin [BSA]). Test compound was prepared in 100% dimethyl sulfoxide (DMSO) at 50× the desired final concentration. A 1 μL volume of compound dilution was added to 40 μL of enzyme dilution and the mixture was allowed to equilibrate for 60 minutes at 25° C. The enzymatic assay was initiated by the addition of 10 μL of substrate mix (500 μM ATP, pH 7.0, 40 μM L-methionine in 1× assay buffer), and the mixture was incubated for a further 60 minutes at 25° C. The reaction was halted and the liberated phosphate released by the enzyme in stoichiometric amounts by the production of S-adenosyl methionine (SAM) was measured using the PiColorLock Gold kit (Innova Biosciences, UK). Absolute product amounts were determined by comparison to a standard curve of potassium phosphate buffer, pH 8.0.

Regarding `COc1ccc(-c2cc3cnc(NCC(F)(F)F)nc3n(-c3ccc(-c4nc[nH]n4)cc3)c2=O)cc1` [Example 101, 8-(4-(1H-1,2,4-triazol-3-yl)phenyl)-6-(4-methoxyphenyl)-2-(2,2,2-trifluoroethylamino)pyrido[2,3-d]pyrimidin-7(8H)-one], the IC50 is 100 to 1000 nM in the assay with HCT116 MTAP-/-, < 100 nM in assay [1], ≥ 1000 nM in the assay with HCT116 MTAP +/+ and < 100 nM on MAT2A homodimer.
In the case of `COc1ccc(-c2cc3cnc(NCC(F)(F)F)nc3n(-c3ccc(O)cc3)c2=O)cc1` [Example 106], the IC50 with HCT116 MTAP-/- is 100 to 1000 nM; in assay [1] it was 100 to 1000 nM; in the assay on HCT116 MTAP +/+, ≥ 1000 nM; on MAT2A homodimer it was 100 to 1000 nM.
`COc1ccc(-c2cc3cnc(NCC(F)(F)F)nc3n(-c3ccc(OC)cc3)c2=O)cc1` [Example 115]: the IC50 in the assay with HCT116 MTAP-/- was 100 to 1000 nM; in assay [1] it was < 100 nM; in the assay with HCT116 MTAP +/+, ≥ 1000 nM; at MAT2A homodimer, < 100 nM.
As to `COc1ccc(-n2c(=O)c(-c3ccc4ncccc4c3)cc3cnc(NCC(F)(F)F)nc32)cc1` [Example 116], the IC50 in the assay with HCT116 MTAP-/- was < 100 nM; in assay [1], < 100 nM; with HCT116 MTAP +/+, ≥ 1000 nM; on MAT2A homodimer, < 100 nM.
Take `COc1ccc(-c2cc3cnc(NCC(F)(F)F)nc3n(-c3ccc(C4CC4)cc3)c2=O)cc1` [Example 118]: the IC50 is < 100 nM in the assay with HCT116 MTAP-/-, < 100 nM in assay [1], ≥ 1000 nM with HCT116 MTAP +/+ and < 100 nM at MAT2A homodimer.
Consider `Cn1cc2cc(-c3cc4ccc(OCC(F)(F)F)nc4n(-c4ccc(Cl)cc4)c3=O)ccc2n1` [Example 119, 1-(4-chlorophenyl)-3-(2-methyl-2H-indazol-5-yl)-7-(2,2,2-trifluoroethoxy)-1,8-naphthyridin-2(1H)-one], for which the IC50 with HCT116 MTAP-/- was < 100 nM; in assay [1], < 100 nM; in the assay on HCT116 MTAP +/+, ≥ 1000 nM; at MAT2A homodimer, < 100 nM.
Consider `Cn1cc2cc(-c3cc4ccc(NCC(F)(F)F)nc4n(-c4ccc(OC(F)F)cc4)c3=O)ccc2n1` [Example 120], for which the IC50 was < 100 nM in the assay with HCT116 MTAP-/-, < 100 nM in assay [1], ≥ 1000 nM in the assay with HCT116 MTAP +/+ and < 100 nM on MAT2A homodimer.
As for `Cn1cc2cc(-c3cc4ccc(OC5CC5)nc4n(-c4ccc(Cl)cc4)c3=O)ccc2n1` [Example 121], the IC50 with HCT116 MTAP-/- is < 100 nM; in assay [1], < 100 nM; in the assay on HCT116 MTAP +/+, ≥ 1000 nM; on MAT2A homodimer, < 100 nM.
For `Cn1cc2cc(-c3cc4ccc(OCC(F)F)nc4n(-c4ccc(Cl)cc4)c3=O)ccc2n1` [Example 122], the IC50 with HCT116 MTAP-/- was < 100 nM; in assay [1] it was < 100 nM; in the assay on HCT116 MTAP +/+, 100 to 1000 nM; at MAT2A homodimer, < 100 nM.
Regarding `COc1ccc(-n2c(=O)c(-c3ccc4nn(C)cc4c3)cc3ccc(OCC(F)(F)F)nc32)cn1` [Example 123], the IC50 in the assay on HCT116 MTAP-/- was < 100 nM; in assay [1], < 100 nM; with HCT116 MTAP +/+ it was ≥ 1000 nM; on MAT2A homodimer, < 100 nM.
`COc1ccc(-n2c(=O)c(-c3ccc4nn(C)cc4c3)cc3ccc(OCC(F)F)nc32)cn1` [Example 124]: the IC50 with HCT116 MTAP-/- is < 100 nM; in assay [1], < 100 nM; in the assay on HCT116 MTAP +/+ it was 100 to 1000 nM; on MAT2A homodimer, < 100 nM.
As to `COc1ccc(-c2cc3cnc(NCC(F)(F)F)nc3n(-c3ccc(OC(F)F)cc3)c2=O)cc1` [Example 127], the IC50 with HCT116 MTAP-/- is 100 to 1000 nM; in assay [1] it was < 100 nM; in the assay on HCT116 MTAP +/+, ≥ 1000 nM; at MAT2A homodimer, < 100 nM.
As for `CCOc1ccc2cc(-c3ccc4nncn4c3)c(=O)n(-c3ccc(C4CC4)nc3)c2n1` [Example 215], the IC50 (with HCT116 MTAP-/-; in assay [1]; on MAT2A homodimer) was < 100 nM each time.
Turning to `[2H]C([2H])([2H])Oc1ccc(-n2c(=O)c(-c3ccc4nn(C)cc4c3)cc3ccc(O[C@H](C)C(F)(F)F)nc32)cc1` [Example 304], the IC50 (in assay [1]; at MAT2A homodimer) was < 100 nM in each case.
